Measured values as given in patent US20210401730A1, “USE OF EXTRACTS OF AGAVE FOR A HAIR APPLICATION” (priority 2017, published 2021).
Like-named read-outs stand apart in the source and are kept apart here.

Columns and labels:
[1] = test system: human umbilical vein endothelial cells (HUVEC); assay: Formation of microtubules (pseudo-tubes) by endothelial cells on matrigel; type: cell-based; settings: for Results in % (formation of pseudo-tubes): 6 hours, control medium = 100
Procedure: In this experiment, the cells are human umbilical vein endothelial cells (HUVEC) cultured in M200 medium (Invitrogen M200500) on matrigel (BD Biosciences 354234) for 6 hours. The cells are either in the medium (control medium) or treated by suramin (negative control) or treated by VEGF (positive control) or treated by Metlin® or Metlos® inulins (at 0.1%). After 6 hours of incubation, the pseudo-tubes formed are observed under the microscope and images are taken at random to be subsequently quantified (total surface of the network) by image analysis.

[2] = test system: EPCs (circulating endothelial progenitor cells) originating from human umbilical cord blood; assay: Migration of endothelial progenitor cells through insert membrane; type: cell-based; settings: C+ medium + VEGF 10 ng/ml, 5 hours
Procedure: The study was carried out on EPCs (circulating endothelial progenitor cells) originating from human umbilical cord blood, cultured in EGM-2 medium (Endothelial Growth medium-2).
Before the treatment, the cells are starved in 0.2% EBM-2 medium of fetal calf serum (FCS). The cells are subsequently seeded in an insert containing EGM-2 medium with 0.2% FCS, immersed in a well containing the treatment: either EGM-2 medium 0.2% FCS (negative control), or EGM-2 medium 0.2% FCS plus VEGF at 10 ng/ml (positive control), or EGM-2 medium 0.2% FCS plus the Metlin® or Metlos® inulins at 0.5% or 1%. After 5 hours of incubation, the cells inside the inserts are eliminated and those that have migrated to the other side of the insert membrane are fixed with 4% paraformaldehyde for 10 min. The cells that have migrated are subsequently counted.

Row | Compound | Number of branchings ([1]; C− 20 μM, 6 hours of incubation) | Results in % (formation of pseudo-tubes) ([1]; C− 20 μM) [%] | Number of cells (migrated) [2] | Results relative to C− [2] [%] | Number of branchings [1] | Results in % (formation of pseudo-tubes) ([1]; C+ 50 ng/ml) [%]
1 | Cc1ccc(C(=O)Nc2ccc(S(=O)(=O)O)c3cc(S(=O)(=O)O)cc(S(=O)(=O)O)c23)cc1NC(=O)c1cccc(NC(=O)Nc2cccc(C(=O)Nc3cc(C(=O)Nc4ccc(S(=O)(=O)O)c5cc(S(=O)(=O)O)cc(S(=O)(=O)O)c45)ccc3C)c2)c1 [Suramin, suramin] | 0 | 0 |  |  |  | 
2 | VEGF |  |  | 417 | 181 | 18 | 140
